US10245245B2, “Compositions and methods for neuroprotection and treatment of neurodegeneration” (Vireo Systems, Inc., priority 2015, dated 2019)

Tests used:
[1] = Relative bioavailability; conditions: in vivo
[2] = system: confirmed carriers of the HD gene mutation; assay: Creatine HCl in patients having HD gene mutation (clinical neurological assessment, MRI); type: in vivo, human; conditions: 10 to 12 grams/day
Description: Patients were confirmed carriers of the HD gene mutation at early stage 1 progression. Each patient was instructed to take 10 to 12 grams/day of creatine HCl. Neurological progression of disease was monitored quarterly as were full blood chemistry profiles. Assessment of neurological progression using magnetic resonance imaging (MRI) was also performed at a minimum of once a year.

[3] = cited from earlier work

Structure (SMILES) | relative bioavailability, greater than creatine monohydrate [1] | progression of disease (clinical neurological assessments or MRI) ([2]; 3.5 years, early stage 1 carriers) | onset of the disease / symptoms ([2]; over the 3.5 year time period) | patients unable to tolerate the maximum dose ([3]; 30 g daily) | those on placebo unable to tolerate the maximal dose when they switched to it ([3]; maximal dose 30 g daily)
CN(CC(=O)O)C(=N)N.Cl [creatine HCl, creatine hydrochloride] | at least 50% | no progression of disease | no symptoms |  | 
CN(CC(=O)O)C(=N)N.O [creatine monohydrate] |  |  |  | about one-third | 13%
